# Results as given in patent publication US20180280377A1, “Imidazo[4,5-c]quinolin-2-one Compounds and Their Use in Treating Cancer” (ASTRAZENECA AB, priority 2015, published 2018).
# Assays:
# mTOR = target: T1, mTOR (Homo sapiens, UniProt P42345); assay: mTOR cellular potency assay (phospho-AKT Ser473 in MDA-MB-468 cells); assay type: cell-based; details: MDA-MB-468 cells, 2 h, phospho-AKT Ser473; Table 2; read-out: Assay d) mTOR Cell IC50
# T1 construct: phosphorylation of the Akt protein at Ser473 (AKT lies downstream of PI3Kα in the signal transduction pathway) in the MDA-MB-468 cells; endogenous in cells; host or cells: MDA-MB-468 cells (ATCC HTB 132)
# Description: The following assays were used to measure the effects of the compounds of the present invention: a) ATM cellular potency assay; b) PI3K cellular potency assay; c) mTOR cellular potency assay; d) ATR cellular potency assay. During the description of the assays, generally: • i. The following abbreviations have been used: 4NQO=4-Nitroquinoline N-oxide; Ab=Antibody; BSA=Bovine Serum Albumin; CO2=Carbon Dioxide; DMEM=Dulbecco's Modified Eagle Medium; DMSO=Dimethyl Sulphoxide; EDTA=Ethylenediaminetetraacetic Acid; EGTA=Ethylene Glycol Tetraacetic Acid; ELISA=Enzyme-linked Immunosorbent Assay; EMEM=Eagle's Minimal Essential Medium; FBS=Foetal Bovine Serum; h=H(s); HRP=Horseradish Peroxidase; i.p.=intraperitoneal; PBS=Phosphate buffered saline; PBST=Phosphate buffered saline/Tween; TRIS=Tris(Hydroxymethyl)aminomethane; MTS reagent: [3-(4,5-dimethylthiazol-2-yl)-5-(3-carboxymethoxyphenyl)-2-(4-sulfophenyl)-2H-tetrazolium, inner salt, and an electron coupling reagent (phenazine methosulfate) PMS; s.c. sub-cutaneously. • ii. IC50 values were calculated using a smart fitting model in Genedata.
# This assay was used to measure mTOR inhibition in cells. The aim of the phospho-AKT cell based mechanism of action assay using the Acumen Explorer is to identify inhibitors of either PI3Kα or mTOR-Rictor (Rapamycin insensitive companion of mTOR). This is measured by any decrease in the phosphorylation of the Akt protein at Ser473 (AKT lies downstream of PI3Kα in the signal transduction pathway) in the MDA-MB-468 cells following treatment with compound.
# MDA-MB-468 cells (human breast adenocarcinoma #ATCC HTB 132) were seeded at 1500 cells/well in 40 μl of DMEM containing 10% FBS and 1% glutamine into Greiner 384 well black flat-bottomed plates. Cell plates were incubated for 18 h in a 37° C. incubator before dosing with compounds of Formula (I) in 100% DMSO using acoustic dispensing. Compounds were dosed in a 12 point concentration range into a randomised plate map. Control wells were generated either by dosing of 100% DMSO (max signal) or addition of a reference compound (a PI3K-62 inhibitor) that completely eliminated the pAKT signal (min control). Plates were incubated at 37° C. for 2 h; cells were then fixed by the addition of […] of a 3.7% formaldehyde solution. After 30 minutes the plates were washed with PBS using a Tecan PW384 plate washer. Wells were blocked and cells permeabilised with the addition of 40 μl of PBS containing 0.5% Tween20 and 1% Marvel™ (dried milk powder) and incubated for 60 minutes at r.t. The plates were washed with PBS containing 0.5% (v/v) Tween20 and 20 μl rabbit anti-phospho AKT Ser473 (Cell Signalling Technologies, #3787) in same PBS-Tween+1% MarvelTM was added and incubated overnight at 4° C.
# Plates were washed 3 times with PBS+0.05% Tween 20 using a Tecan PW384. 20 μl of secondary antibody Alexa Fluor 488 anti-Rabbit (Molecular Probes, # A11008) diluted in PBS+0.05% Tween20 containing 1% Marvel™ was added to each well and incubated for 1 h at r.t. Plates were washed three times as before then 20 μl PBS added to each well and plates sealed with a black plate sealer.
# The plates were read on an Acumen plate reader as soon as possible, measuring green fluorescence after excitation with 488 nm laser. Using this system IC50 values were generated and quality of plates was determined by control wells. Reference compounds were run each time to monitor assay performance.
# ATM = target: T2, ATM (Homo sapiens, UniProt Q13315); assay: ATM cellular potency assay (pATM Ser1981 in irradiated HT29 cells); assay type: cell-based; details: 1 h compound, X-ray irradiation, pATM (Ser1981); Table 2; read-out: Assay a) ATM Cell IC50
# T2 construct: endogenous in cells; host or cells: HT29 cells (ECACC #85061109)
# T2 sequence (Q13315 whole entry): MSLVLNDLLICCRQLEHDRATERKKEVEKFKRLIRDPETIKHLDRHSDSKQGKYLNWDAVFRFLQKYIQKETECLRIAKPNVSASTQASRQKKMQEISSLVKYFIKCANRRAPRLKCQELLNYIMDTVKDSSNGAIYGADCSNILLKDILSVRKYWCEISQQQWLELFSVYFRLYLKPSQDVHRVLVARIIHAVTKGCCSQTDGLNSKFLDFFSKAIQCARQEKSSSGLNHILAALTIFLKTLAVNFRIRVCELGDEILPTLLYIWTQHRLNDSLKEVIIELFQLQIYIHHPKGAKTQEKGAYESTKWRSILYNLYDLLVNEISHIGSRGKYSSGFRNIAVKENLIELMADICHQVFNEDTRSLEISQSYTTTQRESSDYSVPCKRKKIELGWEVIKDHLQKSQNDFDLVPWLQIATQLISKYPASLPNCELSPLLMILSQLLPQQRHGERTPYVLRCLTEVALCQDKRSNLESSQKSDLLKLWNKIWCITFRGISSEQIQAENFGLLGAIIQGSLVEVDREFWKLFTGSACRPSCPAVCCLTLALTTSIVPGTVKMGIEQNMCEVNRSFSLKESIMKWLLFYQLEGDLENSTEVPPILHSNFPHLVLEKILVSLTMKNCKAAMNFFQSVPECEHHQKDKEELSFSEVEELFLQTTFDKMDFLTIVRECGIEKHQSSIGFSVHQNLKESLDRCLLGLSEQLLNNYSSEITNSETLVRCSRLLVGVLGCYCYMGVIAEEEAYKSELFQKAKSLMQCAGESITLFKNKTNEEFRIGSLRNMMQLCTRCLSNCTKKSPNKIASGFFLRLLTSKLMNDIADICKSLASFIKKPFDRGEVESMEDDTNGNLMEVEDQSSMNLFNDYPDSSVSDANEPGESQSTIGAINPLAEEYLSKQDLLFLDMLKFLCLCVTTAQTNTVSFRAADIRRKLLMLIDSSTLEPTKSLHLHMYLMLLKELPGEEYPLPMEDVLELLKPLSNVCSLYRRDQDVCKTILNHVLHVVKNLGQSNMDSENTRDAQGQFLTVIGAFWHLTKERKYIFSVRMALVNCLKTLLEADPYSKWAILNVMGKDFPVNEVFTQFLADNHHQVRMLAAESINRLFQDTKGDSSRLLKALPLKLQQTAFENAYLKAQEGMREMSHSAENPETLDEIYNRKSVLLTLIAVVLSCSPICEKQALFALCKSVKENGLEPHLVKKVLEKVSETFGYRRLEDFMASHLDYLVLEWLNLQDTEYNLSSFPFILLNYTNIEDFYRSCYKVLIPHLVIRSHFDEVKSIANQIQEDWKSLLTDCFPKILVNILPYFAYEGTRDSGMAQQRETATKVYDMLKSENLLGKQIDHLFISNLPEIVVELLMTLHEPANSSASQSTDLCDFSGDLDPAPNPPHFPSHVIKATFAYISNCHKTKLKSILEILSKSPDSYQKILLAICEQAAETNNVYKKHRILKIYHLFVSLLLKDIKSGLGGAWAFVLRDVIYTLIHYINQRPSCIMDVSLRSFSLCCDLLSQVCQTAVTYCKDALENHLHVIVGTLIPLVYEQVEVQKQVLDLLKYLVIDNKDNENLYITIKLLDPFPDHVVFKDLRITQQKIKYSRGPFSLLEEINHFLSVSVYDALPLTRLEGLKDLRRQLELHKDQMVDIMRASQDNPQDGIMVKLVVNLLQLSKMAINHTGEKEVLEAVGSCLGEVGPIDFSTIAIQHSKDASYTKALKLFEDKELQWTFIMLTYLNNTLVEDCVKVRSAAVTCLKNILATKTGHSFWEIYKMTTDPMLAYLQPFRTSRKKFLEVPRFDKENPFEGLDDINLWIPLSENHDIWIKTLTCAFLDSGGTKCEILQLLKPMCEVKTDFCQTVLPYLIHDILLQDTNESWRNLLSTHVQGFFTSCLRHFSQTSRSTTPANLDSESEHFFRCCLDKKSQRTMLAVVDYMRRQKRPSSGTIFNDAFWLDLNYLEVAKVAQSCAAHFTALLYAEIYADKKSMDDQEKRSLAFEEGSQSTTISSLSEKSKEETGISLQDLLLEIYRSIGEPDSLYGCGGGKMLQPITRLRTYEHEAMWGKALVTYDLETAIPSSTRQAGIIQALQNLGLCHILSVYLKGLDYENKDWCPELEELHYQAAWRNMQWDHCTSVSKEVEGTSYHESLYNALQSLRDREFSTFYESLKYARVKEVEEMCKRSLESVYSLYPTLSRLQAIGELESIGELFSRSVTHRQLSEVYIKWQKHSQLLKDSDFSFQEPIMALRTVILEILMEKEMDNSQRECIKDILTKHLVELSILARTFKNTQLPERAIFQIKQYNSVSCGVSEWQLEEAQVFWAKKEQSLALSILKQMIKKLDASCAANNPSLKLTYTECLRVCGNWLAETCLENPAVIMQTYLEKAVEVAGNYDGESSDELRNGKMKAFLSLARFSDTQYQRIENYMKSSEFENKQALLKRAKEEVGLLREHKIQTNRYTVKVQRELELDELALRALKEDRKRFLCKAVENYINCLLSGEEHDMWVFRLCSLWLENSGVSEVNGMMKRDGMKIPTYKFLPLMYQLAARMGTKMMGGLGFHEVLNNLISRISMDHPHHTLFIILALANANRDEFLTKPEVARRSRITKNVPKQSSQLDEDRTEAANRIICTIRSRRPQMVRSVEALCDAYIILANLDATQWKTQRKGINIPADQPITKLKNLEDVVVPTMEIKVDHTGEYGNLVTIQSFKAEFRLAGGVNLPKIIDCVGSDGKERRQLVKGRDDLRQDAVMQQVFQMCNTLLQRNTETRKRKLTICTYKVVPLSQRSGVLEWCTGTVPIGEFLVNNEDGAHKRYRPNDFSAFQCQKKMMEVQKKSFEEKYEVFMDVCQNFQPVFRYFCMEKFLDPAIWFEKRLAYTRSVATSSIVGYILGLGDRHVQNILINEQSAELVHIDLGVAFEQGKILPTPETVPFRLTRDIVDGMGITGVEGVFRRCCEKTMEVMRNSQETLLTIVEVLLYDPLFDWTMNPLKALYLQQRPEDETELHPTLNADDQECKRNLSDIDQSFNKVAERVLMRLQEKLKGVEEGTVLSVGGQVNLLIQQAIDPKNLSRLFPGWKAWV
SMILES,IC50 (mTOR),IC50 (ATM)
CN(C)[C@H]1CCN(c2ccc(-c3cc4c(cc3F)ncc3c4n([C@H]4CCCOC4)c(=O)n3C)cn2)C1 [Example 20],> 30 µM,36.5 nM
"CO[C@H]1C[C@@H](n2c(=O)n(C)c3cnc4cc(F)c(-c5ccc(N6CC(N(C)C)C6)nc5)cc4c32)C1 [Example 31, 8-[6-[3-(dimethylamino)azetidin-1-yl]-3-pyridyl]-7-fluoro-1-(cis-3-methoxycyclobutyl)-3-methyl-imidazo[4,5-c]quinolin-2-one]",12.8 µM,33.8 nM
"CO[C@H]1C[C@@H](n2c(=O)n(C)c3cnc4ccc(-c5ccc(N6CCC(N(C)C)CC6)nc5)cc4c32)C1 [Example 36, 8-[6-[4-(dimethylamino)-1-piperidyl]-3-pyridyl]-1-(cis-3-methoxycyclobutyl)-3-methyl-imidazo[4,5-c]quinolin-2-one]",3.9 µM,0.357 nM
"CO[C@H]1C[C@@H](n2c(=O)n(C)c3cnc4cc(F)c(-c5ccc(N6CCC(N(C)C)CC6)nc5)cc4c32)C1 [Example 42, 8-[6-[4-(dimethylamino)-1-piperidyl]-3-pyridyl]-7-fluoro-1-(cis-3-methoxycyclobutyl)-3-methyl-imidazo[4,5-c]quinolin-2-one]",> 15.3 µM,1.54 nM
"CNC1CCN(c2ccc(-c3ccc4ncc5c(c4c3)n([C@H]3C[C@@H](OC)C3)c(=O)n5C)cn2)CC1 [Example 60, 1-(cis-3-methoxycyclobutyl)-3-methyl-8-[6-[4-(methylamino)-1-piperidyl]-3-pyridyl]imidazo[4,5-c]quinolin-2-one]",0.989 µM,0.502 nM

# Continued by falling IC50 (mTOR), values first:
IC50 (mTOR),IC50 (ATM),SMILES
7.72 µM,1.16 nM,"CNC1CCN(c2ccc(-c3cc4c(cc3F)ncc3c4n([C@H]4C[C@@H](OC)C4)c(=O)n3C)cn2)CC1 [Example 57, 7-Fluoro-1-(cis-3-methoxycyclobutyl)-3-methyl-8-[6-[4-(methylamino)-1-piperidyl]-3-pyridyl]imidazo[4,5-c]quinolin-2-one]"
1.5 µM,0.307 nM,"CO[C@H]1CC[C@H](n2c(=O)n(C)c3cnc4ccc(-c5ccc(N6CCC(N(C)C)CC6)nc5)cc4c32)C1 (single isomer, unassigned) [Example 32, 8-[6-[4-(dimethylamino)-1-piperidyl]-3-pyridyl]-1-[trans-3-methoxycyclopentyl]-3-methyl-imidazo[4,5-c]quinolin-2-one]"
0.616 µM,0.626 nM,CN(C)[C@@H]1CCN(c2ccc(-c3ccc4ncc5c(c4c3)n([C@@H]3CCCOC3)c(=O)n5C)cn2)C1 [Example 7]
